Legend:
HBVEC = assay: TUNEL assay, dose response of apoptosis in HBVEC; assay type: cell-based, human
Protocol: RBVEC Cell line: Human Brain Macrovascular Endothelial Cells (HBVEC) were obtained from Biowhittaker (Walkersville, Md.). They were grown in media made as per the instructions in the Complete Medium Kit (Cell Systems Corporation, Kirkland, Wash.). Briefly, 500 ml of Complete Medium was added to 10 ml of Attachment Factor (Cell Systems Corporation, Kirkland, Wash.). The medium is a liquid medium containing 10% serum and CSC Growth factor. Cell stocks were maintained in T25 flasks at 37° C. in a 5% CO2 incubator, and were harvested and passed at about 60-80% confluence. Experiments were performed on cells plated and grown for 24 to 48 hours on collagen-coated coverslips in 35 mm tissue culture dishes.
Terminal deoxynucleotidyl transferase dUTP nick-end labeling (TUNEL) assay. […] Cells on cover slips were washed with PBS, and fixed for 30 minutes at RT with 4% paraformaldehyde, in PBS, pH 7.4. […] Total cell counts were determined by counterstaining fixed cultures with 20:g/ml of Hoechst 33258. […]
Dose Response. The effect of Trypanosome conditioned serum containing medium-induced apoptosis was determined in HBVEC. […] Total cells, and fluorescent cells were counted for each field examined (10 fields per plate minimum). The percentage of TUNEL-labeled cells was calculated as the number of FITC-stained cells divided by the total number.of cells. […]

mouse cerebellum = assay: Mouse cerebellum apoptosis analysis (TUNEL of brain sections); assay type: in vivo, Balb/c mice; conditions: similar to that induced by T. brucei
Protocol: Murine African trypanosomiasis model. All animal-related procedures were carried out in strict accordance with the National Institutes of Health Guide for the Care and Use of Laboratory Animals and approved by the Morehouse School of Medicine's Animal Care and Use Committee. Male Balb/c mice (6-8 weeks of age) were maintained on a 12-hour-light/12-hour-dark cycle with access to food and water ad libitum. Mice were injected intra-peritoneally with parasitized blood (T. brucei L427) and groups of 10 were then sacrificed on days 0, 4, 6 and 8 post-infection (P.I.). Equal numbers of mice were sham-injected (with uninfected blood) as controls. All experiments were repeated twice at different times to ensure that the data were representative of each group, and took into account the potential individual-host variation in trypanosome-induced global gene expression. This murine trypanosomiasis model mimics the major clinical symptoms of HAT, with the infected mice developing fever, tremors, lethargy, weight loss, dyskinesia, convulsions, altered gait, and death by day 10 post injection (P.I.).
Mouse cerebellum and apoptosis analysis. […] The level of apoptosis visible in brain sections was determined semi-quantitatively as the mean numbers of TUNEL-positive (i.e. apoptotic) cells/cm^2 in 20 comparative fields of brain sections from infected and uninfected mice.

**Q.** Which results are given for “AEGPEDKGLTKGGKGKGEKETKVQDEV (listed as Trypanosoma brucei) [ProEP2-1]”?
**A.** induction of apoptosis in HBVEC (HBVEC): induce apoptosis; dose dependence of TUNEL labeling of HBVEC (HBVEC; 24 hours): dose dependent; induction of apoptosis in cerebella of mice (mouse cerebellum): induce apoptosis
